# Test results as given in ChEMBL document CHEMBL4177699, “Organoselenium compounds from purines: Synthesis of 6-arylselanylpurines with antioxidant and anticholinesterase activities and memory improvement effect” (Bioorg Med Chem, 2017).
# The source made the active and inactive calls. The calls are words filed in the database; no cut-off is given here.
# Test system: not listed separately
# Assay: Antioxidant activity assessed as DPPH radical scavenging activity at 1 uM after 30 mins (reference value: 100%)
# Format: functional
# Details: not given
row,Compound,Activity [%]
1,COc1ccc([Se]c2ncnc3[nH]cnc23)cc1,99.8
2,Clc1ccc([Se]c2ncnc3[nH]cnc23)cc1,100
3,c1ccc([Se]c2ncnc3[nH]cnc23)cc1,99.4
4,Cc1ccccc1[Se]c1ncnc2[nH]cnc12,100
5,FC(F)(F)c1cccc([Se]c2ncnc3[nH]cnc23)c1,99.7
6,Cc1ccc([Se]c2ncnc3[nH]cnc23)cc1,101
7,Fc1ccc([Se]c2ncnc3[nH]cnc23)cc1,99.4

# Test system: not listed separately
# Assay: Antioxidant activity assessed as DPPH radical scavenging activity at 10 uM after 30 mins (reference value: 100%)
# Format: functional
# Details: not given
row,Compound,Activity [%]
1,COc1ccc([Se]c2ncnc3[nH]cnc23)cc1,99.7
2,Clc1ccc([Se]c2ncnc3[nH]cnc23)cc1,98.8
3,c1ccc([Se]c2ncnc3[nH]cnc23)cc1,99.4
4,Cc1ccccc1[Se]c1ncnc2[nH]cnc12,100
5,FC(F)(F)c1cccc([Se]c2ncnc3[nH]cnc23)c1,99.4
6,Cc1ccc([Se]c2ncnc3[nH]cnc23)cc1,99.7
7,Fc1ccc([Se]c2ncnc3[nH]cnc23)cc1,99.4

# Test system: not listed separately
# Assay: Antioxidant activity assessed as DPPH radical scavenging activity at 100 uM after 30 mins (reference value: 100%)
# Format: functional
# Details: not given
row,Compound,Activity [%]
1,COc1ccc([Se]c2ncnc3[nH]cnc23)cc1,98.5
2,Clc1ccc([Se]c2ncnc3[nH]cnc23)cc1,85.9
3,c1ccc([Se]c2ncnc3[nH]cnc23)cc1,95.1
4,Cc1ccccc1[Se]c1ncnc2[nH]cnc12,99.3
5,FC(F)(F)c1cccc([Se]c2ncnc3[nH]cnc23)c1,99.4
6,Cc1ccc([Se]c2ncnc3[nH]cnc23)cc1,96.3
7,Fc1ccc([Se]c2ncnc3[nH]cnc23)cc1,98.6

# Test system: not listed separately
# Assay: Antioxidant activity assessed as DPPH radical scavenging activity at 200 uM after 30 mins (reference value: 100%)
# Format: functional
# Details: not given
row,Compound,Activity [%]
1,COc1ccc([Se]c2ncnc3[nH]cnc23)cc1,97.5
2,Clc1ccc([Se]c2ncnc3[nH]cnc23)cc1,68
3,c1ccc([Se]c2ncnc3[nH]cnc23)cc1,90.1
4,Cc1ccccc1[Se]c1ncnc2[nH]cnc12,98.7
5,FC(F)(F)c1cccc([Se]c2ncnc3[nH]cnc23)c1,99
6,Cc1ccc([Se]c2ncnc3[nH]cnc23)cc1,93
7,Fc1ccc([Se]c2ncnc3[nH]cnc23)cc1,98

# Test system: not listed separately
# Assay: Antioxidant activity assessed as ABTS radical scavenging activity at 1 uM after 30 mins (reference value: 100%)
# Format: functional
# Details: not given
row,Compound,Activity [%]
1,COc1ccc([Se]c2ncnc3[nH]cnc23)cc1,101
2,Clc1ccc([Se]c2ncnc3[nH]cnc23)cc1,99.5
3,c1ccc([Se]c2ncnc3[nH]cnc23)cc1,99.9
4,Cc1ccccc1[Se]c1ncnc2[nH]cnc12,99.3
5,FC(F)(F)c1cccc([Se]c2ncnc3[nH]cnc23)c1,99.4
6,Cc1ccc([Se]c2ncnc3[nH]cnc23)cc1,100
7,Fc1ccc([Se]c2ncnc3[nH]cnc23)cc1,99.7

# Test system: not listed separately
# Assay: Antioxidant activity assessed as ABTS radical scavenging activity at 10 uM after 30 mins (reference value: 100%)
# Format: functional
# Details: not given
row,Compound,Activity [%]
1,COc1ccc([Se]c2ncnc3[nH]cnc23)cc1,98.1
2,Clc1ccc([Se]c2ncnc3[nH]cnc23)cc1,98.4
3,c1ccc([Se]c2ncnc3[nH]cnc23)cc1,98.8
4,Cc1ccccc1[Se]c1ncnc2[nH]cnc12,96.9
5,FC(F)(F)c1cccc([Se]c2ncnc3[nH]cnc23)c1,98.9
6,Cc1ccc([Se]c2ncnc3[nH]cnc23)cc1,98
7,Fc1ccc([Se]c2ncnc3[nH]cnc23)cc1,101

# Test system: not listed separately
# Assay: Antioxidant activity assessed as ABTS radical scavenging activity at 100 uM after 30 mins (reference value: 100%)
# Format: functional
# Details: not given
row,Compound,Activity [%]
1,COc1ccc([Se]c2ncnc3[nH]cnc23)cc1,97.1
2,Clc1ccc([Se]c2ncnc3[nH]cnc23)cc1,86.5
3,c1ccc([Se]c2ncnc3[nH]cnc23)cc1,93.2
4,Cc1ccccc1[Se]c1ncnc2[nH]cnc12,97.7
5,FC(F)(F)c1cccc([Se]c2ncnc3[nH]cnc23)c1,97.9
6,Cc1ccc([Se]c2ncnc3[nH]cnc23)cc1,81.7
7,Fc1ccc([Se]c2ncnc3[nH]cnc23)cc1,99.7

# Test system: not listed separately
# Assay: Antioxidant activity assessed as ABTS radical scavenging activity at 200 uM after 30 mins (reference value: 100%)
# Format: functional
# Details: not given
row,Compound,Activity [%]
1,COc1ccc([Se]c2ncnc3[nH]cnc23)cc1,93.5
2,Clc1ccc([Se]c2ncnc3[nH]cnc23)cc1,72.6
3,c1ccc([Se]c2ncnc3[nH]cnc23)cc1,86.5
4,Cc1ccccc1[Se]c1ncnc2[nH]cnc12,94.8
5,FC(F)(F)c1cccc([Se]c2ncnc3[nH]cnc23)c1,97.6
6,Cc1ccc([Se]c2ncnc3[nH]cnc23)cc1,61.5
7,Fc1ccc([Se]c2ncnc3[nH]cnc23)cc1,96.9

# Molecular target: T1, Acetylcholinesterase (Mus musculus) (UniProt P21836)
# T1 sequence (whole entry): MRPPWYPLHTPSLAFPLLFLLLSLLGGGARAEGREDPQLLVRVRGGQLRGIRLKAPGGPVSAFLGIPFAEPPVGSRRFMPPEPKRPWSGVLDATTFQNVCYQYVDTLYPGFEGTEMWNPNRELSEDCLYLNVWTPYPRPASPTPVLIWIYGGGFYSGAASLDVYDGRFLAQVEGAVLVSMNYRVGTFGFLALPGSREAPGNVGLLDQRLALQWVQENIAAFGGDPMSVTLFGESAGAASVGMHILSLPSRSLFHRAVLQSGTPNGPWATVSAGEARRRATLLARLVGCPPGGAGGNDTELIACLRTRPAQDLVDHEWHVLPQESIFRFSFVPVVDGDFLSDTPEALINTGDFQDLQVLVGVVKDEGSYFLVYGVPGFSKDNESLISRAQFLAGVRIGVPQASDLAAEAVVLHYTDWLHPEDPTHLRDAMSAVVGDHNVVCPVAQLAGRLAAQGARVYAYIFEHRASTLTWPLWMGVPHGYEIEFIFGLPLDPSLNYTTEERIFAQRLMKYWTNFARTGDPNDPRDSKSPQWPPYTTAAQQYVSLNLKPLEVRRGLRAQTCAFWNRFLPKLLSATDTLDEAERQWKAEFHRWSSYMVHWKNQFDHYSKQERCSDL
# Assay: (§1) Inhibition of AChE in Swiss mouse cerebral cortex homogenate using acetylthiocholine as substrate assessed as acetylthiocholine level per mg protein at 1 uM preincubated for 2 mins followed by substrate addition by DTNB based assay (reference value: 9.6 +/- 0.5 umol/hr)
# Details: not given
row,Compound,Activity [µmol/h]
1,COc1ccc([Se]c2ncnc3[nH]cnc23)cc1,10.4
2,Clc1ccc([Se]c2ncnc3[nH]cnc23)cc1,7.2
3,c1ccc([Se]c2ncnc3[nH]cnc23)cc1,7.8
4,Cc1ccccc1[Se]c1ncnc2[nH]cnc12,7.9
5,FC(F)(F)c1cccc([Se]c2ncnc3[nH]cnc23)c1,7.9
6,Cc1ccc([Se]c2ncnc3[nH]cnc23)cc1,8.7
7,Fc1ccc([Se]c2ncnc3[nH]cnc23)cc1,6.6

# Molecular target: T1, Acetylcholinesterase (Mus musculus)
# Assay: Inhibition of AChE in Swiss mouse cerebral cortex homogenate using acetylthiocholine as substrate assessed as acetylthiocholine level per mg protein at 10 uM preincubated for 2 mins followed by substrate addition by DTNB based assay (reference value: 9.6 +/- 0.5 umol/hr)
# Details: not given
row,Compound,Activity [µmol/h]
1,COc1ccc([Se]c2ncnc3[nH]cnc23)cc1,11.3
2,Clc1ccc([Se]c2ncnc3[nH]cnc23)cc1,7.3
3,c1ccc([Se]c2ncnc3[nH]cnc23)cc1,7.6
4,Cc1ccccc1[Se]c1ncnc2[nH]cnc12,7.6
5,FC(F)(F)c1cccc([Se]c2ncnc3[nH]cnc23)c1,8.9
6,Cc1ccc([Se]c2ncnc3[nH]cnc23)cc1,9.3
7,Fc1ccc([Se]c2ncnc3[nH]cnc23)cc1,6.5

# Molecular target: T1, Acetylcholinesterase (Mus musculus)
# Assay: as §1, with “100” for “1”, “umol/hr) (reference value: 9.6 +/- 0.5 umol/hr)” for “umol/hr)”
# Details: not given
row,Compound,Activity [µmol/h]
1,COc1ccc([Se]c2ncnc3[nH]cnc23)cc1,11
2,Clc1ccc([Se]c2ncnc3[nH]cnc23)cc1,7.8
3,c1ccc([Se]c2ncnc3[nH]cnc23)cc1,7.7
4,Cc1ccccc1[Se]c1ncnc2[nH]cnc12,7.1
5,FC(F)(F)c1cccc([Se]c2ncnc3[nH]cnc23)c1,8.2
6,Cc1ccc([Se]c2ncnc3[nH]cnc23)cc1,8.9
7,Fc1ccc([Se]c2ncnc3[nH]cnc23)cc1,6.6

# Molecular target: T1, Acetylcholinesterase (Mus musculus)
# Assay: Inhibition of AChE in Swiss mouse cerebral cortex homogenate using acetylthiocholine as substrate assessed as acetylthiocholine level per mg protein at 200 uM preincubated for 2 mins followed by substrate addition by DTNB based assay (reference value: 9.6 +/- 0.5 umol/hr)
# Details: not given
row,Compound,Activity [µmol/h]
1,COc1ccc([Se]c2ncnc3[nH]cnc23)cc1,8.8
2,Clc1ccc([Se]c2ncnc3[nH]cnc23)cc1,7.8
3,c1ccc([Se]c2ncnc3[nH]cnc23)cc1,7.6
4,Cc1ccccc1[Se]c1ncnc2[nH]cnc12,6.3
5,FC(F)(F)c1cccc([Se]c2ncnc3[nH]cnc23)c1,8.2
6,Cc1ccc([Se]c2ncnc3[nH]cnc23)cc1,8.9
7,Fc1ccc([Se]c2ncnc3[nH]cnc23)cc1,6.6

# Molecular target: T1, Acetylcholinesterase (Mus musculus)
# Assay: Inhibition of AChE in Swiss mouse cerebral cortex homogenate using acetylthiocholine as substrate assessed as acetylthiocholine level per mg protein at 200 uM preincubated for 2 mins followed by substrate addition by DTNB based assay relative to acetylthiocholine
# Details: not given
row,Compound,Imax [%]
1,Cc1ccccc1[Se]c1ncnc2[nH]cnc12,34.4

# Molecular target: T1, Acetylcholinesterase (Mus musculus)
# Assay: Inhibition of AChE in Swiss mouse cerebral cortex homogenate using acetylthiocholine as substrate assessed as acetylthiocholine level per mg protein at 1 uM preincubated for 2 mins followed by substrate addition by DTNB based assay relative to acetylthiocholine
# Details: not given
row,Compound,Imax [%]
1,Fc1ccc([Se]c2ncnc3[nH]cnc23)cc1,31.2

# Test system: Mus musculus
# Assay: Cognitive enhancement activity in Swiss mouse assessed as step-through latency at 10 mg/kg, ig treated 30 mins before training measured 24 hrs after training trial by passive avoidance test
# Format: functional, organism-based
# Details: not given
row,Compound,Activity
1,Fc1ccc([Se]c2ncnc3[nH]cnc23)cc1,inactive

# Test system: Mus musculus
# Assay: Cognitive enhancement activity in Swiss mouse assessed as increase in step-through latency at 10 mg/kg, ig treated immediately post-training measured 24 hrs after training trial by passive avoidance test relative to control
# Format: functional
# Details: not given
row,Compound,Activity [%]
1,Fc1ccc([Se]c2ncnc3[nH]cnc23)cc1,52

# Test system: Mus musculus
# Assay: Cognitive enhancement activity in Swiss mouse assessed as increase in step-through latency at 10 mg/kg, ig treated 30 mins before test session measured 24 hrs after training trial by passive avoidance test relative to control
# Format: functional
# Details: not given
row,Compound,Activity [%]
1,Fc1ccc([Se]c2ncnc3[nH]cnc23)cc1,44

# Test system: Mus musculus
# Assay: Toxicity in Swiss mouse assessed as impairment in locomotory activity at 10 mg/kg, ig treated 30 mins before training measured up to 4 mins by open-field test
# Format: organism-based
# Details: in vivo, po
row,Compound,Activity
1,Fc1ccc([Se]c2ncnc3[nH]cnc23)cc1,Non-Toxic

# Test system: Mus musculus
# Assay: Toxicity in Swiss mouse assessed as impairment in locomotory activity at 10 mg/kg, ig treated immediately post-training measured up to 4 mins by open-field test
# Format: organism-based
# Details: in vivo, po
row,Compound,Activity
1,Fc1ccc([Se]c2ncnc3[nH]cnc23)cc1,Non-Toxic

# Test system: Mus musculus
# Assay: Toxicity in Swiss mouse assessed as impairment in locomotory activity at 10 mg/kg, ig treated 30 mins before test session measured up to 4 mins by open-field test
# Format: organism-based
# Details: in vivo, po
row,Compound,Activity
1,Fc1ccc([Se]c2ncnc3[nH]cnc23)cc1,Non-Toxic

# Test system: Mus musculus
# Assay: Toxicity in Swiss mouse assessed as impairment in exploratory behavior at 10 mg/kg, ig treated 30 mins before training measured up to 4 mins by open-field test
# Format: organism-based
# Details: in vivo, po
row,Compound,Activity
1,Fc1ccc([Se]c2ncnc3[nH]cnc23)cc1,Non-Toxic

# Test system: Mus musculus
# Assay: Toxicity in Swiss mouse assessed as impairment in exploratory behavior at 10 mg/kg, ig treated immediately post-training measured up to 4 mins by open-field test
# Format: organism-based
# Details: in vivo, po
row,Compound,Activity
1,Fc1ccc([Se]c2ncnc3[nH]cnc23)cc1,Non-Toxic

# Test system: Mus musculus
# Assay: Toxicity in Swiss mouse assessed as impairment in exploratory behavior at 10 mg/kg, ig treated 30 mins before test session measured up to 4 mins by open-field test
# Format: organism-based
# Details: in vivo, po
row,Compound,Activity
1,Fc1ccc([Se]c2ncnc3[nH]cnc23)cc1,Non-Toxic
